Measured values taken from patent publication US10272095B2 (GlaxoSmithKline Intellectual Property Development Limited, priority 2015, dated 2019).
Where a name gives a salt, the structure may show the parent alone.

test system: NQO1 specific enzyme activity in BEAS-2B cells; assay: BEAS-2B NQO1 MTT assay; type: cell-based; conditions: Homo sapiens, BEAS-2B, 48 h, NQO1 specific enzyme activity induction in BEAS-2B cells, 48 hours; read-out: EC50
Summary of the method: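 BEAS-2B cells exposed to compound 48 h at 37° C, 5% CO2, then lysed. NQO1 activity read kinetically in lysate with MTT cocktail (absorbance 570 nm, 30 min); Cell Titer Glo run on a lysate aliquot. pEC50 from ΔOD/min versus log concentration, 3-parameter fit.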

Row | SMILES | EC50 [nM]
1 | CCn1nnc2c(C)c(C(CC(=O)O)c3ccc4c(c3)C3C(CCN3C(=O)OC(C)(C)C)C4)ccc21 (stereo not drawn) [Example 16, 3-(1-(tert-Butoxycarbonyl)-1,2,3,3a,4,8b-hexahydroindeno[1,2-b]pyrrol-7-yl)-3-(1-ethyl-4-methyl-1H-benzo[d][1,2,3]triazol-5-yl)propanoic Acid] | 100 to 1000
2 | Cc1c(C(CC(=O)O)c2ccc3c(c2)C2C(CC(=O)N2CC2CCC4CCCCC4C2)C3)ccc2c1nnn2C (stereo not drawn) [Example 4, 3-[1-(Decahydronaphthalen-2-ylmethyl)-2-oxo-1H,2H,3H,3aH,4H,8bH-indeno[1,2-b]pyrrol-7-yl]-3-(1,4-dimethyl-1H-1,2,3-benzotriazol-5-yl)propanoic Acid] | 10 to 100
3 | Cc1c([C@H](c2ccc3c(c2)[C@H](N2Cc4ccccc4OC(C)(C)C2)CC3)C(C)(C)C(=O)O)ccc2c1nnn2C (stereo in doubt) [Example 77, rel-(S)-3-(1,4-Dimethyl-1H-benzo[d][1,2,3]triazol-5-yl)-3-(rel-(R)-3-(2,2-dimethyl-2,3-dihydrobenzo[f][1,4]oxazepin-4(5H)-yl)-2,3-dihydro-1H-inden-5-yl)-2,2-dimethylpropanoic Acid] | < 1
4 | Cc1c(C(CC(=O)O)c2ccc3c(c2)C(N2Cc4ccc(C#N)cc4OC(C)(C)C2)CC3)ccc2c1nnn2C (stereo not drawn) [Example 35, 3-(3-(8-Cyano-2,2-dimethyl-2,3-dihydrobenzo[f][1,4]oxazepin-4(5H)-yl)-2,3-dihydro-1H-inden-5-yl)-3-(1,4-dimethyl-1H-benzo[d][1,2,3]triazol-5-yl)propanoic Acid, Formic Acid Salt] | 1 to 10
5 | Cc1ccc2c(c1)CN(C1CCc3ccc(C(CC(=O)O)c4ccc5c(nnn5C)c4C)cc31)CC(C)(C)O2 (stereo not drawn) [Example 22, 3-(1,4-Dimethyl-1H-benzo[d][1,2,3]triazol-5-yl)-3-(3-(2,2,7-trimethyl-2,3-dihydrobenzo[f][1,4]oxazepin-4(5H)-yl)-2,3-dihydro-1H-inden-5-yl)propanoic Acid] | 1 to 10
6 | CC[C@@H]1CN(C2CCc3ccc(C(CCc4cn(CC)nn4)C(C)(C)C(=O)O)cc32)Cc2cnccc2O1 (stereo partly drawn) [Example 87, 5-(1-Ethyl-1H-1,2,3-triazol-4-yl)-3-(3-((R)-2-ethyl-2,3-dihydropyrido[3,4-f][1,4]oxazepin-4(5H)-yl)-2,3-dihydro-1H-inden-5-yl)-2,2-dimethylpentanoic Acid] | 10 to 100
